Experimental findings from PubChem BioAssay AID1993 (NMMLSC, 2009) are described below.

Calls of active or inactive are those of the source.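 Rule for the calls: active = fluorescence area over time at least a quarter above or below the solvent control area (some results past the limit were not filed as active); inactive = the rest.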

The assay concerns U937 FPR-DeltaST, VLA-4 LDV-FITC binding, flow cytometry. The experiment in a line: fMLF receptor-driven LDV-FITC binding on U937 cells – cell-based, U937 FPR-DeltaST, flow cytometry, RGS protein inhibitor project (AID 1993). As to conditions: at 10 µM; hits give high values.
Regarding `Nc1c(C(=O)NCC2CCCO2)sc2nc3c(c(-c4ccco4)c12)CC/C3=C\c1ccco1` (configuration not stated), the AUC was 455 (inactive).

With `O=C(NCCCN1CCOCC1)c1sc2cc([N+](=O)[O-])ccc2c1Cl`, the AUC is 27100.

On to `O=C1C(Cl)=C(N2CCCCC2)C(=O)C(Cl)=C1c1cnc(N2CCCCC2)s1`, for which the AUC is 2540 (inactive). The result for `CC(NC(=O)c1sc2cc([N+](=O)[O-])ccc2c1Cl)C(C)(C)C` (configuration not stated) reads 29100; that for `O=c1c2ccccc2sn1-c1ccccc1`, 18300 (inactive). The result for `Cc1cc(C)c2c(=O)n(CC(=O)Nc3ccc(Cl)cc3)sc2n1` reads 22800 (inactive); that for `COc1ccc(OC)c(CCNC(=O)Cn2sc3nc(C)cc(C)c3c2=O)c1`, 26600.

On to `CCC(=O)NC1=C(Cl)C(=O)C(NC(=O)CC)=C(Cl)C1=O`, for which the AUC is 11600 (inactive). The result for `Cc1cccc(N2CCN(C(=O)Cn3sc4nc(C)cc(C)c4c3=O)CC2C)c1` (configuration not stated) reads 25500; that for `Cc1ccc(NC(=O)Cn2sc3nc(C)cc(C)c3c2=O)c(Cl)c1`, 23500 (inactive); that for `CCOC(=O)C1CCCN(C(=O)Cn2sc3nc(C)cc(C)c3c2=O)C1` (configuration not stated), 27900. Under `NS(=O)(=O)c1ccc(N/N=C/c2ccc(O)c(O)c2O)c([N+](=O)[O-])c1` stands 20500 (inactive); under `CCN(CC)S(=O)(=O)c1cccc(C(=O)N/N=C/c2ccc(O)c(O)c2O)c1`, 26500; under `O=c1c2ccccc2sn1-c1ccc(S(=O)(=O)N2CCCC2)cc1`, 19400 (inactive). The result for `O=c1c2ccccc2sn1-c1cc(S(=O)(=O)N2CCOCC2)ccc1N1CCCC1` reads 19600 (inactive). With `Cc1cc(C)c2c(=O)n(CC(=O)Nc3cccc(F)c3)sc2n1`, the AUC is 25000 (inactive). Under `Cc1[nH]n(-c2ccccc2)c(=S)c1C=Nc1cccc([N+](=O)[O-])c1` stands 26500.
